Reference: patent publication US7084253B2, “Protease-activated receptor PAR4 (ZCHEMR2)” (ZymoGenetics, Inc., priority 1998, dated 2006)
“Also recorded” adds a separate entry of the source. Where two headings read alike, the source gives them in different places. One block for each molecule: values may come before it. No end group written: not given here.

Tests used:
PAR4 = molecular target: T1, PAR4 (Homo sapiens, UniProt Q96RI0, A120T); test: phosphoinositide hydrolysis assay in COS cells transiently transfected with PAR4 cDNA; assay type: cell-based; details: for activity against PAR4 (other proteases): concentration not given; for response of PAR4-transfected COS cells (phosphatidylinositol 4,5 diphosphate hydrolysis): protease at 100 nM
T1 construct: expressed in transfected cells; host or cells: COS-7
T1 sequence (Q96RI0 18-385 A120T): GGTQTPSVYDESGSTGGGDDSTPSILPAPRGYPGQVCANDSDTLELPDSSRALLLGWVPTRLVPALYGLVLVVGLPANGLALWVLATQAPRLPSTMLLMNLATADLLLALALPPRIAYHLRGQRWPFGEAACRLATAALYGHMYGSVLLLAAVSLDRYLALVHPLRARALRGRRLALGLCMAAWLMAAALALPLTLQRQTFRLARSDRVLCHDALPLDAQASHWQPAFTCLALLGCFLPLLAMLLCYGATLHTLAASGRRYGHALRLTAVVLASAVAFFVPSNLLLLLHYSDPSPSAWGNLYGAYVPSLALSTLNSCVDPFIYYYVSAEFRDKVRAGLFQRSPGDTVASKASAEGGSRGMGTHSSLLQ
Experimental: (§1) COS cells were transiently transfected with PAR4 cDNA, and examined for responses to thrombin and trypsin. Briefly, for the phosphoinositide hydrolysis assay, COS-7 cells were grown in Dulbecco's modified Eagle's medium (DMEM; Gibco/BRL, Gaithersburg, Md.) with 10% fetal bovine serum (FBS). Cells were plated at 3.5×10^5/35-mm plate one day before transfection. Two μg of DNA were transfected using 12 μl of lipofectAMINE (Gibco/BRL) for 5 h. The cells were incubated overnight in DMEM with 10% FBS, and then split into triplicate 35-mm wells. Forty-eight hours after transfection, the cells were loaded with 2 μCi/ml [^3H]myo-inositol (Amersham, Arlington Heights, Ill.) in serum-free DMEM and incubated overnight at 37° C. Cells were washed and treated with 20 mM LiCl in DMEM, with or without protease or peptide activators added at various concentrations. Cells were then incubated for 2 h at 37° C. and extracted with 750 μl of 20 mM formic acid for 30 min on ice. The inositol mono-, bis-, and trisphosphates were purified through a one ml AG 1-X8 anion-exchange resin (Bio-Rad, Hercules, Calif.) (T. Nanevicz et al., J. Biol. Chem. 271:702–06, 1996), and quantitated by scintillation counting. In each hydrolysis assay, surface expression levels of receptors were determined in triplicate in parallel cultures.

PAR4 (R47A) = molecular target: T2, PAR4 (R47A) (Homo sapiens, UniProt Q96RI0, A120T/R47A); test: phosphoinositide hydrolysis in COS cells expressing cleavage site mutant PAR4 (R47A); assay type: cell-based; details: Ala for Arg at residue 47
T2 construct: expressed in transfected cells; host or cells: COS cells
T2 sequence (Q96RI0 18-385 R47A/A120T): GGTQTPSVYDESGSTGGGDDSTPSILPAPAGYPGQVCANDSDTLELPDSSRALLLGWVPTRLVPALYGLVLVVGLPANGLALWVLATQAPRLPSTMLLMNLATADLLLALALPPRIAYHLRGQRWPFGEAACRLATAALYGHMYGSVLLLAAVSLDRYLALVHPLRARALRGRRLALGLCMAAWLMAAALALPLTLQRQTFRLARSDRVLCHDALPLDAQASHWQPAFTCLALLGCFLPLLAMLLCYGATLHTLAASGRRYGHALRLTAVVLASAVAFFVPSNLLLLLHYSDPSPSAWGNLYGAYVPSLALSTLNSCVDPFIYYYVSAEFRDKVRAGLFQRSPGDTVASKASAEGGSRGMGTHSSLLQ
Experimental: as §1, with “cultures. […]” for “cultures.”

PAR4 (R68A) = molecular target: T3, PAR4 (R68A) (Homo sapiens, UniProt Q96RI0, A120T/R68A); test: phosphatidylinositol 4,5 diphosphate hydrolysis assay in COS cells expressing PAR4 mutant R68A; assay type: cell-based; details: Arg 68 to Ala, extracellular amino-terminal region
T3 construct: expressed in transfected cells; host or cells: COS cells (inferred from the R47A sentence of the same paragraph)
T3 sequence (Q96RI0 18-385 R68A/A120T): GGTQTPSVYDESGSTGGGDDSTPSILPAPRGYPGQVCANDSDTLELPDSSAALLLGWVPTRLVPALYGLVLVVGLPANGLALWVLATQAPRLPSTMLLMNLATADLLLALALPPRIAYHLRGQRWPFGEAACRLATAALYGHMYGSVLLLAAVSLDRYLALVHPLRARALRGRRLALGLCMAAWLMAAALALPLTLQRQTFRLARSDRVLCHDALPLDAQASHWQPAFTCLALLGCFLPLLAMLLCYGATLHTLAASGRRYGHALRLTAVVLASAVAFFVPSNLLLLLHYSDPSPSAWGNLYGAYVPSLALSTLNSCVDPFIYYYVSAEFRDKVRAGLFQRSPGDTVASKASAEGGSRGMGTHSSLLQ
Experimental: as §1, with “cultures. […]” for “cultures.”

PAR1 = molecular target: T4, PAR1 (Homo sapiens, UniProt P25116); test: thrombin-stimulated phosphoinositide hydrolysis, PAR1 (comparison); assay type: cell-based; details: comparison with PAR4; read-out: half-maximal concentration (EC50) for PAR1
T4 construct: expressed in transfected cells; COS-7 inferred from the assay of b141
T4 sequence (P25116 22-425): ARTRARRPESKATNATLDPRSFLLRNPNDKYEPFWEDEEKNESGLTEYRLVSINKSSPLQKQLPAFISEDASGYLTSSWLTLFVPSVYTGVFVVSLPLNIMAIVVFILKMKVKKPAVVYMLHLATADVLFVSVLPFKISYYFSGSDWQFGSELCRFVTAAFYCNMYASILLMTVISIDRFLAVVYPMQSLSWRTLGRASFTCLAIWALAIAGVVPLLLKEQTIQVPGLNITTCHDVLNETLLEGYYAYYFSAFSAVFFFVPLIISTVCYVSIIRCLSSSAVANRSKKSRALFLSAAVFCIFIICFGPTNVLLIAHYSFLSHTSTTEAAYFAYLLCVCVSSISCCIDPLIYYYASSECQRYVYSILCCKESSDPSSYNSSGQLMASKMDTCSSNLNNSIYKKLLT
Experimental: For comparative purposes, PAR1 protein was prepared. Briefly, the cDNA coding for PAR1 was isolated from a placental cDNA library by PCR. The PAR1 DNA sequence obtained was essentially identical to that previously reported, except for nucleotides 711–712 (CG→GC) and nucleotides 1091–1092 (CG→GC). […] These amino acid changes were confirmed by sequence analysis of the corresponding regions in the genomic DNA coding for PAR1.
as §1, with “Forty-eight hours after transfection, the cells were loaded with 2 μCi/ml [^3H]myo-inositol (Amersham, Arlington Heights, Ill.) in serum-free DMEM and incubated overnight at 37° C. Cells were washed and treated with 20 mM LiCl in DMEM, with or without protease or peptide activators added at various concentrations. Cells were then incubated for 2 h at 37° C. and extracted with 750 μl of 20 mM formic acid for 30 min on ice.” left out

PAR3 = molecular target: T5, PAR3 (Homo sapiens, UniProt O00254); details: comparison with PAR4; read-out: half-maximal concentration (EC50) for PAR3; cited from earlier work
T5 sequence (O00254 22-374): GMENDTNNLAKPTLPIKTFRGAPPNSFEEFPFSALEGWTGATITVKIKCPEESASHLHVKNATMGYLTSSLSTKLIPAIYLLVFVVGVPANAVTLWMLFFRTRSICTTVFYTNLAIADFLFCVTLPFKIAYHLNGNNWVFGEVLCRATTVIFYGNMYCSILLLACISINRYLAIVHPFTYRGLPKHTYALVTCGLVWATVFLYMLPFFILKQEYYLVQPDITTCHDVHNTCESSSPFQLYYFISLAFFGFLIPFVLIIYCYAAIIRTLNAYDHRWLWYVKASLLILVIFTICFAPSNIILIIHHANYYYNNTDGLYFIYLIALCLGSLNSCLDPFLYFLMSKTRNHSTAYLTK

[1] = PAR4-transfected COS cells, read-out: half-maximal concentration (EC50), phosphoinositide hydrolysis with PAR4

Molecule: elastase
- activity against PAR4 (other proteases) (PAR4): failed to activate

Molecule: GYPGQV [GYPGQV]
- EC50 (PAR4): ~100000 nM

Molecule: SFLLRN [reference compound]
- activity toward PAR4 of PAR1 activating peptide (PAR4; concentration effective for PAR1 activation): no activity

Molecule: trypsin: serine protease, activator of PAR4
- EC50 (PAR4; [1]): 5 nM
- response of PAR4-transfected COS cells (phosphatidylinositol 4,5 diphosphate hydrolysis) (PAR4): did respond
- response of putative cleavage site mutant PAR4 (R47A) to protease (PAR4 (R47A)): failed to respond; also recorded: only activate the wild-type PAR4
- effect of R68A mutation on PAR4 activation by protease (PAR4 (R68A)): no effect

B1: plasmin: arginine/lysine-specific serine protease (protein, UniProt P00747 20-580; P00747 581-810, looked up)
Plasmin heavy chain A: EPLDDYVNTQGASLFSVTKKQLGAGSIEECAAKCEEDEEFTCRAFQYHSKEQQCVIMAENRKSSIIIRMRDVVLFEKKVYLSECKTGNGKNYRGTMSKTKNGITCQKWSSTSPHRPRFSPATHPSEGLEENYCRNPDNDPQGPWCYTTDPEKRYDYCDILECEEECMHCSGENYDGKISKTMSGLECQAWDSQSPHAHGYIPSKFPNKNLKKNYCRNPDRELRPWCFTTDPNKRWELCDIPRCTTPPPSSGPTYQCLKGTGENYRGNVAVTVSGHTCQHWSAQTPHTHNRTPENFPCKNLDENYCRNPDGKRAPWCHTTNSQVRWEYCKIPSCDSSPVSTEQLAPTAPPELTPVVQDCYHGDGQSYRGTSSTTTTGKKCQSWSSMTPHRHQKTPENYPNAGLTMNYCRNPDADKGPWCFTTDPSVRWEYCNLKKCSGTEASVVAPPPVVLLPDVETPSEEDCMFGNGKGYRGKRATTVTGTPCQDWAAQEPHRHSIFTPETNPRAGLEKNYCRNPDGDVGGPWCYTTNPRKLYDYCDVPQCAAPSFDCGKPQVEPKKCPGR
Plasmin light chain B: VVGGCVAHPHSWPWQVSLRTRFGMHFCGGTLISPEWVLTAAHCLEKSPRPSSYKVILGAHQEVNLEPHVQEIEVSRLFLEPTRKDIALLKLSSPAVITDKVIPACLPSPNYVVADRTECFITGWGETQGTFGAGLLKEAQLPVIENKVCNRYEFLNGRVQSTELCAGHLAGGTDSCQGDSGGPLVCFEKDKYILQGVTSWGLGCARPNKPGVYVRVSRFVTWIEGVMRNN
modifications: Plasmin
notes: arginine/lysine-specific serine protease
- activity against PAR4 (other proteases) (PAR4): little or no activity

Second part, led by results:

- activity against PAR4 (other proteases) (PAR4): failed to activate
Molecule: Chymotrypsin

- activity against PAR4 (other proteases) (PAR4): little or no activity
Molecule: urokinase

- EC50 (PAR1): ~0.2 nM
- EC50 (PAR4; [1]): 5 nM
- response of PAR4-transfected COS cells (phosphatidylinositol 4,5 diphosphate hydrolysis) (PAR4): did respond
- effect of R68A mutation on PAR4 activation by protease (PAR4 (R68A)): no effect
Molecule: thrombin
- EC50 (PAR3): ~0.2 nM
- response of putative cleavage site mutant PAR4 (R47A) to protease (PAR4 (R47A)): failed to respond; also recorded: only activate the wild-type PAR4
